Reference: US10287297B2, “Epoxyazulene derivatives useful for treating cancer and diabetes” (The United States of America, as represented by the …, priority 2015, dated 2019)

Tests used:
Assay type in all cases: cell-based
SR = test: NCI 60 cell assay, leukemia SR; details: Homo sapiens, 48 h, drug exposure two days, SRB endpoint, read-out: GI-50 value
Description: (§1) Samples were tested in the standard National Cancer Institute 60-cell line protocol. First, they were tested against all 60 cell lines in a single final concentration of 10 micromolar. Then, they were separately tested in five 10-fold dilutions. The drug exposure was two days, with an SRB endpoint.

MDA-MB-468 = test: NCI 60 cell assay, breast MDA-MB-468; details: Homo sapiens, 48 h; MDA-MB-468 (breast); drug exposure two days, SRB endpoint; read-out: GI-50 value
Description: as §1

CAKI-1 = test: NCI 60 cell assay, renal CAKI-1; details: Homo sapiens, 48 h; CAKI-1 (renal); drug exposure two days, SRB endpoint; read-out: GI-50 value
Description: as §1

HCC-2998 = test: NCI 60 cell assay, colon HCC-2998; details: Homo sapiens, 48 h; HCC-2998 (colon); drug exposure two days, SRB endpoint; read-out: GI-50 value
Description: as §1

U251 = test: NCI 60 cell assay, CNS U251; details: Homo sapiens, U-251, 48 h, drug exposure two days, SRB endpoint, read-out: GI-50 value
Description: as §1

BT-549 = test: NCI 60 cell assay, breast BT-549; details: Homo sapiens, 48 h; BT-549 (breast); drug exposure two days, SRB endpoint; read-out: GI-50 value
Description: as §1

NCI-H23 = test: NCI 60 cell assay, NSCLC NCI-H23; details: Homo sapiens, 48 h, drug exposure two days, SRB endpoint, read-out: GI-50 value
Description: as §1

IGROV1 = test: NCI 60 cell assay, ovarian IGROV1; details: Homo sapiens, IGROV-1, 48 h, drug exposure two days, SRB endpoint, read-out: GI-50 value
Description: as §1

COLO 205 = test: NCI 60 cell assay, colon COLO 205; details: Homo sapiens, 48 h; COLO 205 (colon); drug exposure two days, SRB endpoint; read-out: GI-50 value
Description: as §1

A498 = test: NCI 60 cell assay, renal A498; details: Homo sapiens, 48 h, drug exposure two days, SRB endpoint, read-out: GI-50 value
Description: as §1

SK-MEL-28 = test: NCI 60 cell assay, melanoma SK-MEL-28; details: Homo sapiens, 48 h; SK-MEL-28 (melanoma); drug exposure two days, SRB endpoint; read-out: GI-50 value
Description: as §1

MALME-3M = test: NCI 60 cell assay, melanoma MALME-3M; details: Homo sapiens, 48 h; MALME-3M (melanoma); drug exposure two days, SRB endpoint; read-out: GI-50 value
Description: as §1

NCI-H460 = test: NCI 60 cell assay, NSCLC NCI-H460; details: Homo sapiens, 48 h, drug exposure two days, SRB endpoint, read-out: GI-50 value
Description: as §1

OVCAR-5 = test: NCI 60 cell assay, ovarian OVCAR-5; details: Homo sapiens, 48 h; OVCAR-5 (ovarian); drug exposure two days, SRB endpoint; read-out: GI-50 value
Description: as §1

TK-10 = test: NCI 60 cell assay, renal TK-10; details: Homo sapiens, 48 h; TK-10 (renal); drug exposure two days, SRB endpoint; read-out: GI-50 value
Description: as §1

ACHN = test: NCI 60 cell assay, renal ACHN; details: Homo sapiens, 48 h, drug exposure two days, SRB endpoint, read-out: GI-50 value
Description: as §1

SK-OV-3 = test: NCI 60 cell assay, ovarian SK-OV-3; details: Homo sapiens, 48 h; SK-OV-3 (ovarian); drug exposure two days, SRB endpoint; read-out: GI-50 value
Description: as §1

MDA-MB-435 = test: NCI 60 cell assay, melanoma MDA-MB-435; details: Homo sapiens, 48 h; MDA-MB-435 (melanoma); drug exposure two days, SRB endpoint; read-out: GI-50 value
Description: as §1

MOLT-4 = test: NCI 60 cell assay, leukemia MOLT-4; details: Homo sapiens, 48 h; MOLT-4 (leukemia); drug exposure two days, SRB endpoint; read-out: GI-50 value
Description: as §1

NCI-H522 = test: NCI 60 cell assay, NSCLC NCI-H522; details: Homo sapiens, 48 h, drug exposure two days, SRB endpoint, read-out: GI-50 value
Description: as §1

OVCAR-4 = test: NCI 60 cell assay, ovarian OVCAR-4; details: Homo sapiens, 48 h; OVCAR-4 (ovarian); drug exposure two days, SRB endpoint; read-out: GI-50 value
Description: as §1

HS 578T = test: NCI 60 cell assay, breast HS 578T; details: Homo sapiens, 48 h; HS 578T (breast); drug exposure two days, SRB endpoint; read-out: GI-50 value
Description: as §1

T-47D = test: NCI 60 cell assay, breast T-47D; details: Homo sapiens, T47D, 48 h; T-47D (breast); drug exposure two days, SRB endpoint; read-out: GI-50 value
Description: as §1

SF-268 = test: NCI 60 cell assay, CNS SF-268; details: Homo sapiens, 48 h; SF-268 (CNS); drug exposure two days, SRB endpoint; read-out: GI-50 value
Description: as §1

SK-MEL-5 = test: NCI 60 cell assay, melanoma SK-MEL-5; details: Homo sapiens, 48 h; SK-MEL-5 (melanoma); drug exposure two days, SRB endpoint; read-out: GI-50 value
Description: as §1

UACC-62 = test: NCI 60 cell assay, melanoma UACC-62; details: Homo sapiens, 48 h; UACC-62 (melanoma); drug exposure two days, SRB endpoint; read-out: GI-50 value
Description: as §1

SF-295 = test: NCI 60 cell assay, CNS SF-295; details: Homo sapiens, 48 h; SF-295 (CNS); drug exposure two days, SRB endpoint; read-out: GI-50 value
Description: as §1

UACC-257 = test: NCI 60 cell assay, melanoma UACC-257; details: Homo sapiens, 48 h; UACC-257 (melanoma); drug exposure two days, SRB endpoint; read-out: GI-50 value
Description: as §1

A549/ATCC = test: NCI 60 cell assay, NSCLC A549/ATCC; details: Homo sapiens, 48 h, drug exposure two days, SRB endpoint, read-out: GI-50 value
Description: as §1

HT29 = test: NCI 60 cell assay, colon HT29; details: Homo sapiens, HT-29, 48 h, drug exposure two days, SRB endpoint, read-out: GI-50 value
Description: as §1

SF-539 = test: NCI 60 cell assay, CNS SF-539; details: Homo sapiens, 48 h; SF-539 (CNS); drug exposure two days, SRB endpoint; read-out: GI-50 value
Description: as §1

NCI/ADR-RES = test: NCI 60 cell assay, ovarian NCI/ADR-RES; details: Homo sapiens, 48 h, drug exposure two days, SRB endpoint, read-out: GI-50 value
Description: as §1

| Structure (SMILES) | GI50 (SR) | GI50 (MDA-MB-468) | GI50 (CAKI-1) | GI50 (HCC-2998) | GI50 (U251) | GI50 (BT-549) | GI50 (NCI-H23) | GI50 (IGROV1) | GI50 (COLO 205) | GI50 (A498) | GI50 (SK-MEL-28) | GI50 (MALME-3M) | GI50 (NCI-H460) | GI50 (OVCAR-5) | GI50 (TK-10) | GI50 (ACHN) | GI50 (SK-OV-3) | GI50 (MDA-MB-435) | GI50 (MOLT-4) | GI50 (NCI-H522) | other results |
| --- | --- | --- | --- | --- | --- | --- | --- | --- | --- | --- | --- | --- | --- | --- | --- | --- | --- | --- | --- | --- | --- |
| CC1=C2[C@@H](CC1)[C@]1(C)O[C@@](C(C)C)(C[C@H]1OC(=O)CO)[C@H]2OC(=O)C1CC1c1ccccc1 (stereo partly drawn) [Compound (Ij), (3aR,4S,5R,7R,8S)-5-(2-hydroxyacetoxy)-7-isopropyl-1,4-dimethyl-2,3,3a,4,5,6,7,8-octahydro-4,7-epoxyazulen-8-yl-2-phenylcyclopropane-1-carboxylate] | 14 µM | 13 µM | 12 µM | 14 µM | 15 µM | 14 µM | 15 µM | 19 µM | 17 µM | 0.27 µM | 17 µM | 17 µM | 16 µM | 20 µM | 17 µM | 1.4 µM | 17 µM | 15 µM | 9 µM | 13 µM | GI50 (OVCAR-4): 14 µM; GI50 (HS 578T): 0.15 µM; GI50 (T-47D): 4.6 µM; GI50 (SF-268): 14 µM; GI50 (SK-MEL-5): 16 µM; GI50 (UACC-62): 12 µM; GI50 (SF-295): 13 µM; GI50 (UACC-257): 16 µM; GI50 (A549/ATCC): 13 µM; GI50 (HT29): 13 µM; GI50 (SF-539): 17 µM; GI50 (NCI/ADR-RES): 12 µM |
| CC1=C2[C@@H](CC1)[C@]1(C)O[C@@](c3ccccc3)(C[C@H]1OC(=O)CO)[C@H]2OC(=O)C=Cc1ccccc1 [(Ir), (3aR,4S,5R,7R,8S)-5-(2-hydroxyacetoxy)-1,4-dimethyl-7-phenyl-2,3,3a,4,5,6,7,8-octahydro-4,7-epoxyazulen-8-yl cinnamate] | 11 µM | 15 µM | 13 µM | 15 µM | 13 µM | 0.71 µM | 17 µM | 24 µM | 15 µM | 0.089 µM | 18 µM | 20 µM | 15 µM | 22 µM | 23 µM | 0.035 µM | 19 µM | 17 µM | 12 µM | 17 µM | GI50 (OVCAR-4): 15 µM; GI50 (HS 578T): 0.033 µM; GI50 (T-47D): 11 µM; GI50 (SF-268): 1.4 µM; GI50 (SK-MEL-5): 15 µM; GI50 (UACC-62): 15 µM; GI50 (SF-295): 14 µM; GI50 (UACC-257): 19 µM; GI50 (A549/ATCC): 15 µM; GI50 (HT29): 16 µM; GI50 (SF-539): 18 µM; GI50 (NCI/ADR-RES): 0.34 µM |
